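Method: 48-hour compound exposure of cells in 96-well plates, five concentrations, linear interpolation of endpoints. TGI marks complete inhibition of growth.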
Assays:
Experiment in all cases: NCI tumour cell line growth inhibition, 48 h
A498 renal = system: A498 renal
A549 NSCLC = system: A549 NSCLC
ACHN renal = system: ACHN renal
BT-549 breast = system: BT-549 breast
CCRF-CEM leukemia = system: CCRF-CEM leukemia
COLO 205 colon = system: COLO 205 colon
DU-145 prostate = system: DU-145 prostate
EKVX NSCLC = system: EKVX NSCLC
HCC-2998 colon = system: HCC-2998 colon
HCT-116 colon = system: HCT-116 colon
HCT-15 colon = system: HCT-15 colon
HL-60(TB) leukemia = system: HL-60(TB) leukemia
HOP-62 NSCLC = system: HOP-62 NSCLC
HOP-92 NSCLC = system: HOP-92 NSCLC
HS 578T breast = system: HS 578T breast
IGROV1 ovarian = system: IGROV1 ovarian
MDA-MB-231 breast = system: MDA-MB-231 breast
MDA-N = system: MDA-N
MOLT-4 leukemia = system: MOLT-4 leukemia
NCI-H23 lung = system: NCI-H23 lung
NCI-H460 lung = system: NCI-H460 lung
NCI-H522 lung = system: NCI-H522 lung
OVCAR-4 ovarian = system: OVCAR-4 ovarian
OVCAR-5 ovarian = system: OVCAR-5 ovarian
PC-3 prostate = system: PC-3 prostate
RPMI-8226 leukemia = system: RPMI-8226 leukemia
RXF 393 renal = system: RXF 393 renal
SF-295 CNS = system: SF-295 CNS
SF-539 CNS = system: SF-539 CNS
SK-MEL-2 melanoma = system: SK-MEL-2 melanoma
SK-MEL-28 melanoma = system: SK-MEL-28 melanoma
SK-MEL-5 melanoma = system: SK-MEL-5 melanoma
SK-OV-3 ovarian = system: SK-OV-3 ovarian
SN12C renal = system: SN12C renal
SW-620 colon = system: SW-620 colon
T-47D breast = system: T-47D breast
TK-10 renal = system: TK-10 renal
786-0 renal = system: 786-0 renal
CAKI-1 renal = system: CAKI-1 renal
HT29 colon = system: HT29 colon
K-562 leukemia = system: K-562 leukemia
KM12 colon = system: KM12 colon
LOX IMVI melanoma = system: LOX IMVI melanoma
M14 melanoma = system: M14 melanoma
MALME-3M melanoma = system: MALME-3M melanoma
MCF7 breast = system: MCF7 breast
MDA-MB-435 = system: MDA-MB-435
NCI-H226 lung = system: NCI-H226 lung
NCI/ADR-RES ovarian = system: NCI/ADR-RES ovarian
OVCAR-3 ovarian = system: OVCAR-3 ovarian
OVCAR-8 ovarian = system: OVCAR-8 ovarian
SF-268 CNS = system: SF-268 CNS
SNB-19 CNS = system: SNB-19 CNS
SNB-75 CNS = system: SNB-75 CNS
U251 CNS = system: U251 CNS
UACC-257 melanoma = system: UACC-257 melanoma
UACC-62 melanoma = system: UACC-62 melanoma
UO-31 renal = system: UO-31 renal

Compound: CO[C@H]1C[C@H](O[C@H]2CC[C@]3(C=O)[C@H]4CC[C@]5(C)[C@@H](C6=CC(=O)OC6)CC[C@]5(O)[C@@H]4CC[C@]3(O)C2)O[C@H](C)[C@H]1O[C@@H]1O[C@H](CO)[C@@H](O)[C@H](O)[C@H]1O
- TGI (A498 renal): 0.198 nM
- TGI (A549 NSCLC): 0.00983 nM
- TGI (ACHN renal): 0.135 nM
- TGI (BT-549 breast): 0.0472 nM
- TGI (CCRF-CEM leukemia): 25 nM
- TGI (COLO 205 colon): 0.867 nM
- TGI (DU-145 prostate): 0.0166 nM
- TGI (EKVX NSCLC): 0.0203 nM
- TGI (HCC-2998 colon): 27.1 nM
- TGI (HCT-116 colon): 0.035 nM
- TGI (HCT-15 colon): 0.0831 nM
- TGI (HL-60(TB) leukemia): 11 nM
- TGI (HOP-62 NSCLC): 0.0425 nM
- TGI (HOP-92 NSCLC): 0.141 nM
- TGI (HS 578T breast): > 100000 nM
- TGI (IGROV1 ovarian): 139 nM
- TGI (MDA-MB-231 breast): 2.5 nM
- TGI (MDA-N): 0.074 nM
- TGI (MOLT-4 leukemia): 0.0132 nM
- TGI (NCI-H23 lung): 0.0288 nM
- TGI (NCI-H460 lung): 0.0771 nM
- TGI (NCI-H522 lung): 0.0405 nM
- TGI (OVCAR-4 ovarian): 0.0307 nM
- TGI (OVCAR-5 ovarian): 0.0697 nM
- TGI (PC-3 prostate): 0.955 nM
- TGI (RPMI-8226 leukemia): 0.1 nM
- TGI (RXF 393 renal): 0.154 nM
- TGI (SF-295 CNS): 0.289 nM
- TGI (SF-539 CNS): 0.0585 nM
- TGI (SK-MEL-2 melanoma): 0.435 nM
- TGI (SK-MEL-28 melanoma): 0.145 nM
- TGI (SK-MEL-5 melanoma): 0.0972 nM
- TGI (SK-OV-3 ovarian): 0.153 nM
- TGI (SN12C renal): 0.0364 nM
- TGI (SW-620 colon): 0.0747 nM
- TGI (T-47D breast): 0.185 nM
- TGI (TK-10 renal): 0.395 nM

Compound: CC1(C)C2CC(O)C1CCC2=O (stereo unspecified)
- TGI (786-0 renal): > 100000 nM
- TGI (A498 renal): > 100000 nM
- TGI (A549 NSCLC): > 100000 nM
- TGI (ACHN renal): > 100000 nM
- TGI (BT-549 breast): > 100000 nM
- TGI (CAKI-1 renal): > 100000 nM
- TGI (CCRF-CEM leukemia): > 100000 nM
- TGI (COLO 205 colon): > 100000 nM
- TGI (DU-145 prostate): > 100000 nM
- TGI (HCC-2998 colon): > 100000 nM
- TGI (HCT-116 colon): > 100000 nM
- TGI (HCT-15 colon): > 100000 nM
- TGI (HL-60(TB) leukemia): > 100000 nM
- TGI (HOP-62 NSCLC): > 100000 nM
- TGI (HS 578T breast): > 100000 nM
- TGI (HT29 colon): > 100000 nM
- TGI (K-562 leukemia): > 100000 nM
- TGI (KM12 colon): > 100000 nM
- TGI (LOX IMVI melanoma): > 100000 nM
- TGI (M14 melanoma): > 100000 nM
- TGI (MALME-3M melanoma): > 100000 nM
- TGI (MCF7 breast): > 100000 nM
- TGI (MDA-MB-231 breast): > 100000 nM
- TGI (MDA-MB-435): > 100000 nM
- TGI (MDA-N): > 100000 nM
- TGI (MOLT-4 leukemia): > 100000 nM
- TGI (NCI-H226 lung): > 100000 nM
- TGI (NCI-H23 lung): > 100000 nM
- TGI (NCI-H460 lung): > 100000 nM
- TGI (NCI-H522 lung): > 100000 nM
- TGI (NCI/ADR-RES ovarian): > 100000 nM
- TGI (OVCAR-3 ovarian): > 100000 nM
- TGI (OVCAR-4 ovarian): > 100000 nM
- TGI (OVCAR-5 ovarian): > 100000 nM
- TGI (OVCAR-8 ovarian): > 100000 nM
- TGI (PC-3 prostate): > 100000 nM
- TGI (RPMI-8226 leukemia): > 100000 nM
- TGI (RXF 393 renal): > 100000 nM
- TGI (SF-268 CNS): > 100000 nM
- TGI (SF-295 CNS): > 100000 nM
- TGI (SF-539 CNS): > 100000 nM
- TGI (SK-MEL-2 melanoma): > 100000 nM
- TGI (SK-MEL-28 melanoma): > 100000 nM
- TGI (SK-MEL-5 melanoma): > 100000 nM
- TGI (SK-OV-3 ovarian): > 100000 nM
- TGI (SN12C renal): > 100000 nM
- TGI (SNB-19 CNS): > 100000 nM
- TGI (SNB-75 CNS): > 100000 nM
- TGI (T-47D breast): > 100000 nM
- TGI (TK-10 renal): > 100000 nM
- TGI (U251 CNS): > 100000 nM
- TGI (UACC-257 melanoma): > 100000 nM
- TGI (UACC-62 melanoma): > 100000 nM
- TGI (UO-31 renal): > 100000 nM

Source: PubChem BioAssay (NCI)
